Assay results: a melting point compilation (Tetko et al.; mined from patent text by program, amines drawn as free bases though some values may be those of a salt)

Row | SMILES | melting point
1 | O=C(Nc1ccc2[nH]c(=O)oc2c1)C(=O)N1CCC(Cc2ccc(F)cc2F)CC1 | 191 °C
2 | CC(=O)OCCOC(=O)C1=C(C)NC(C)=C(C(=O)CS(=O)(=O)NC(C)C)C1c1cccc([N+](=O)[O-])c1 (centres undefined) | 133 to 136 °C
3 | CC(=O)NC[C@H]1CN(c2ccc(N3CCSC3)c(F)c2)C(=O)O1 | 103 to 105 °C
4 | CC(C)=NN=c1scc(C)n1C | 139 to 140 °C
5 | COc1ccc(Nc2nc(Cl)nc(NCCO)n2)cc1 | 169 to 173 °C
6 | C[C@H](NC(=O)c1c[nH]c2ncc(-c3ccc(C(=O)NCc4cccc(C#N)c4)s3)nc12)C(C)(C)C | 171 to 174 °C
7 | COC(=O)c1ccc(OCCCOc2c(C)c(C)c(C(=O)Oc3c(C)c(C)c(C(N)=O)c(OC)c3C)c(OC)c2C)cc1 | 202 to 204 °C
8 | CC(C)(C)C(=O)Oc1ccc(C(=O)c2ccc(OC(=O)C(C)(C)C)cc2OC(=O)C(C)(C)C)cc1 | 94 to 96 °C
9 | C=CCOCc1[nH]c(=O)c(CC(C)C)[n+]([O-])c1N | 149 to 151 °C
10 | Cc1cc(NS(=O)(=O)c2nc3nc(Cl)cc(Cl)n3n2)ccc1Br | 232 to 234 °C
11 | CNC(=O)Nc1ccc(O)cc1 | 169 to 171 °C
12 | O=C(Nc1ccc(-n2nc(C(F)(F)F)cc2C(F)(F)F)cc1)Nc1ccc(Cl)c([N+](=O)[O-])c1 | 207 to 209 °C
13 | CC[C@H]1[C@H](O)CN1c1cc2c(cc1F)c(=O)c(C(=O)O)cn2C1CC1 (relative stereo) | 250 to 255 °C
14 | Cc1ccccc1C(=O)Nc1ncc([N+](=O)[O-])s1 | 228 to 230 °C
15 | O=C(O)c1ccc2nc3c4nc5cc(C(=O)O)ccc5nc4c4nc5cc(C(=O)O)ccc5nc4c3nc2c1 | > 390 °C
16 | O=C1COCCN1CCn1c2ccccc2c2c(N3CCCC3)nc(N3CCCC3)nc21 | 179 to 180 °C
17 | COc1cc2c(cc1OC)CCC(C(=O)O)=C2 | 191 to 194 °C
18 | CN(C)CCCNc1ccc(NCCCN(C)C)c2c1C(=O)c1c(O)ccc(O)c1C2=O | 154 to 157 °C
19 | O=[N+]([O-])c1ccc(C(O)C(CO)[N+](=O)[O-])cc1 (centres undefined) | 105 to 107 °C

Row | SMILES | melting point
20 | CC(=O)N[C@H](COC1CCCCO1)C(=O)NCCO[N+](=O)[O-] (some centres undefined) | 93 to 95 °C
21 | OC1CSC(Oc2cncc(-c3c(F)cc(F)cc3F)c2)C(O)C1O (centres undefined) | 228 °C
22 | O=[N+]([O-])C=C1SCCCN1S(=O)(=O)CCCO | 80 to 83 °C
23 | COC(=O)Cc1c(C)nc(C)nc1Cl | 53 to 54 °C
24 | Cc1cccc(NC(=O)CN2c3ccc(Cl)c(Cl)c3[C@@H]3CCN(C(=O)OC(C)(C)C)CC[C@@H]32)c1C (relative stereo) | 146 °C
25 | CCOC(=O)c1sc(N(C)C)c2c1CCc1cnn(C)c1-2 | 118 to 119 °C
26 | COc1cc2ccc(C(=O)CBr)cc2cc1OC | 120 to 122 °C
27 | O=C(O)c1cc(Br)cc2c1NCCS2 | 205 to 206 °C
28 | N#CCN1CCN(c2n[nH]c3ccccc23)CC1 | 121 to 123 °C
29 | O=C(NCc1cccs1)C12CC3CC(CC1C3)C2 | 143 to 145 °C
30 | O=CNNc1ccc(NC(=S)N2CC=CC2)cc1 | 218 to 220 °C
31 | CCCCCCCCCCCCCCCCCCOc1cc(OCc2ccccc2)cc(C(=O)OC)c1 | 62 to 64 °C
32 | CN(C)C1(c2ccccc2)CCC(CNC(=O)Oc2ccccc2)CC1 (centres undefined) | 108 to 124 °C
33 | CC(C)(C)OC(=O)N(C(=O)OC(C)(C)C)c1cc(-c2ccc([N+](=O)[O-])cc2)n(C(=O)OC(C)(C)C)n1 | 154 to 155 °C
34 | O=C(O)CCNc1c2ccc(Cl)cc2nc2c(=O)[nH][nH]c(=O)c12 | 356 to 359 °C
35 | OCCCc1cn(-c2ccc(C(F)(F)F)cn2)nc1C1CCCCC1 | 106 to 107 °C
36 | COC(=O)c1cc(=O)c(O)co1 | 184 to 186 °C
37 | Cc1cc(Oc2cc(Cl)ccc2[N+](=O)[O-])n[nH]1 | 87 to 90 °C

Further lines, results first:

Row | melting point | SMILES
38 | 196 to 198 °C | O=C(O)CN(C(=O)OCc1ccccc1)c1ccc(O)cc1
39 | 154 to 155 °C | Cc1c(C(F)(F)F)noc1NS(=O)(=O)c1cccc2ccccc12
40 | > 300 °C | COc1ccc(-c2[nH]nc3c2C(=O)c2c(NC(=O)CN4CCC(N(C)C)CC4)cccc2-3)cc1
41 | 248 to 250 °C | Cc1cc(Oc2ccccc2)c(S(C)(=O)=O)cc1C(=O)N=C(N)N
42 | 223 to 224 °C | Cn1c(=O)c(=NO)nc(-c2ccccc2)c2cnccc21
43 | 144 to 145 °C | O=C(O)CC(Cc1c[nH]c2ccccc12)C(=O)O (centres undefined)
44 | 103 to 105 °C | O=P(NP(=S)(Oc1ccccc1)Oc1ccccc1)(Oc1ccccc1)Oc1ccccc1
45 | 187 to 188 °C | CC(=O)Nc1c(C(=O)c2cc(C)ccn2)[nH]c2cc(Cl)ccc12
46 | 192 to 194 °C | COc1ccc(S(=O)(=O)N2c3ccc(Br)cc3-c3ccccc3C2C)cc1 (centres undefined)
47 | 147 to 149 °C | O=C(CN1CCN(c2ccccc2)CC1)N1CCC(C(=O)N2CCC2)(c2cccc(C(F)(F)F)c2)CC1
48 | 272 to 273 °C | CCc1cccc2[nH]c(C(=O)O)cc(=O)c12
49 | 161 to 163 °C | Nc1ncc2cc(-c3c(Cl)cccc3Cl)c(=O)n(CCCc3ccccc3)c2n1
50 | 223 to 225 °C | COc1ccccc1Oc1cccc2c1C(=O)N(C1CCC(=O)NC1=O)C2=O (centres undefined)
51 | > 95 °C | CN1CCC(CC(=O)N2c3ccccc3NC(=O)c3ccccc32)CC1
52 | 136 °C | CN1C(=O)N2CCOC2(c2ccccc2)c2cc([N+](=O)[O-])ccc21 (centres undefined)
53 | 183 °C | Cc1cc(COc2nn3c(-c4ccccc4F)nncc3c2-c2ccccc2F)nn1C

Row | melting point | SMILES
54 | 220 to 222 °C | Nc1nc(Cc2ccc(OCc3ccccc3)cc2)nc2nc(-c3ccco3)nn12
55 | 128 to 130 °C | Cc1c(O)cccc1C(=O)N[C@@H](Cc1ccccc1)[C@H](O)C(=O)N1CSC(C)(C)[C@H]1C(=O)N[C@@H]1CCc2ccccc21
56 | 226 to 228 °C | O=C(NC1CCOc2cc(C(=O)Nc3ccncc3)ccc21)OCc1ccccc1 (centres undefined)
57 | 115 to 116 °C | C#CCc1c(C)nc2c(NCc3ccccc3Cl)cccn12
58 | 108 to 109 °C | O=S(=O)(c1ccc(Cl)cc1)n1ccc2cc(F)ccc21
59 | 197 to 198 °C | CS(=O)(=O)c1nccc(-c2c(-c3ccc(F)cc3)nc3sccn23)n1
60 | 102 to 105 °C | COc1ccc(C(=O)c2ccnn2Cc2ccccc2)c(Cl)c1Cl
61 | 224 to 225 °C | N#Cc1c(N)oc2c1c(Cc1ccccc1)c(O)c1ccccc12
62 | 110 to 111 °C | Cn1cc(-c2cccc(C(F)(F)F)c2)c(=O)n1-c1cccc(C(F)(F)F)c1
63 | > 330 °C | O=c1c2c[nH]c3c(c-2nn1-c1ccc(Cl)cc1)CSC3
64 | 190 to 193 °C | Cc1cccc(Nc2cc(Nc3ccc(OCC(=O)N(C)C)c(Cl)c3)ncn2)c1
65 | 152 to 155 °C | O=CN1CCCN(C2=Nc3cc(Cl)ccc3Nc3ccccc32)CC1
66 | 115 to 117 °C | CN1N=C2C(=Cc3ccccc3)CNCC2C1c1ccccc1 (centres undefined)
67 | 102 to 103 °C | O=C(O[C@H]1OCCN(Cc2ccccc2)[C@H]1c1ccc(F)cc1)c1cc(C(F)(F)F)cc(C(F)(F)F)c1
68 | 184 to 185 °C | O=C1Nc2cccc(-c3ccccc3)c2/C1=C/c1ccc[nH]1
69 | 169 to 171 °C | O=C(OCC1OC(n2cc(F)c(=O)[nH]c2=O)CC1OCc1ccccc1)c1ccc2c(c1)OCO2 (centres undefined)
